Results as given in patent publication US20230130766A1 (SALK INSTITUTE FOR BIOLOGICAL STUDIES, priority 2020, published 2023).

Legend:
Type in all cases: in vivo, nude mice
A549 cells [1] = assay: A549 xenograft large tumors, ULK inhibitor alone versus carboplatin; conditions: A549 large tumors; each Compound 14 cohort: 20 mg/kg twice daily, 30 mg/kg twice daily, 40 mg/kg once daily; 32 days
Description: A549 cells (5M cells) were injected bilaterally into the flanks of forty-six nude mice to create tumor xenografts in order to assess the efficacy of Compound 14 in treating larger non-small cell lung cancer tumors compared to carboplatin, the current standard of care therapy for non-small cell lung cancer. After 40 days of letting tumor cells proliferate (at which point tumors were over 200 mm^3 in volume), administration of carboplatin or Compound 14 was initiated. One cohort of twelve mice received 20 mg/kg twice daily doses of Compound 14, one cohort of ten mice received 30 mg/kg twice daily doses of Compound 14, one cohort of seven mice received 25 mg/kg doses of carboplatin every three days, one cohort of seven mice received 40 mg/kg once daily doses of Compound 14, and the remaining ten mice were treated with vehicle. Treatment and monitoring was continued until day 72 post inoculation of tumor cells (32 days of treatment).

A549 cells [2] = assay: A549 xenografts, ULK inhibitor alone and in combination with carboplatin
Description: (§1) A549 cells (5M cells) were injected bilaterally into the flanks of thirty-six nude mice to create tumor xenografts in order to assess the efficacy of Compound 14 in treating non-small cell lung cancer tumors both alone and in combination with carboplatin, the current standard of care therapy for non-small cell lung cancer. After 11 days of letting tumor cells proliferate (at which point tumors were ˜50 mm^3 in volume), administration of carboplatin, Compound 14, or combinations began. One cohort of six mice received 20 mg/kg twice daily doses of Compound 14 alone, one cohort of six mice received 30 mg/kg twice daily doses of Compound 14 alone, one cohort of six mice received 25 mg/kg doses of carboplatin every three days, one cohort of six mice received 20 mg/kg twice daily doses of Compound 14 in conjunction with 25 mg/kg doses of carboplatin every three days, one cohort of six mice received 30 mg/kg twice daily doses of Compound 14 in conjunction with 25 mg/kg doses of carboplatin every three days, and the remaining six mice were treated with vehicle. Treatment and monitoring was continued until day 53 post inoculation of tumor cells (42 days of treatment).

MIA PaCa-2 cells = assay: MIA PaCa-2 xenografts, ULK inhibitor alone and in combination with trametinib; conditions: day 25
Description: MIA PaCa-2 cells were injected bilaterally into the flanks nude mice to create tumor xenografts in order to assess the efficacy of Compound 14 in treating pancreatic cancer tumors alone and in combination with trametinib, an MEK inhibitor and current standard of care therapy for the treatment of pancreatic cancer. After letting tumor cells proliferate to the point where tumors had reach ˜300 mm^3 in volume, one cohort of mice was administered 20 mg/kg daily doses of Compound 14, one cohort of mice was administered 30 mg/kg daily doses of Compound 14, one cohort of mice was administered 1 mg/kg daily doses of trametinib, one cohort of mice was administered 1 mg/kg daily doses of trametinib in combination with 20 mg/kg daily doses of Compound 14, one cohort of mice was administered 1 mg/kg daily doses of trametinib in combination with 30 mg/kg daily doses of Compound 14, and the remaining cohort of mice was administered vehicle alone. Treatment and monitoring were continued for 25 days.

[3] = system: phosphorylated ATG13 (P-ATG); assay: Western blot analysis of A549 xenograft tumors; conditions: A549 xenograft tumors at end of study
Description: as §1
At the end of the study, Western blot analysis of the tumors from vehicle and Compound 14 monotherapy cohorts was analyzed.

[4] = system: ULK1, phosphorylated ATG13; assay: Western blot analysis of MIA PaCa-2 xenograft tumors; conditions: MIA PaCa-2 xenograft tumors at end of experiment, 20 mg/kg twice daily
Description: MIA PaCa-2 cells were injected bilaterally into the flanks of nude mice to create tumor xenografts in order to assess the efficacy of Compound 14 in treating pancreatic cancer tumors compared to gemcitabine, a current standard of care therapy for pancreatic cancer. After 3 days of letting tumor cells proliferate (at which point tumors were ˜100 mm^3 in volume), administration of gemcitabine or Compound 14 was initiated. One cohort received 20 mg/kg twice daily doses of Compound 14, one cohort received gemcitabine, and the remaining cohort was treated with vehicle. Treatment and monitoring were continued until day 42 post inoculation of tumor cells (30 days of treatment).

NCI-H460 cells = assay: NCI-H460 xenografts treated with ULK inhibitor alone; conditions: 30 mg/kg twice daily
Description: NCI-H460 cells (2.5M cells) were injected bilaterally into the flanks of twenty-four nude mice to create tumor xenografts in order to assess the efficacy of Compound 14 in treating non-small cell lung cancer tumors. After 14 days of letting tumor cells proliferate (at which point tumors had reach ˜200 mm^3 in volume), one cohort of twelve mice was administered 30 mg/kg twice daily doses of Compound 14, and the remaining mice administered vehicle alone. Treatment and monitoring were continued until day 23 post inoculation of tumor cells (9 days of treatment).

For CNC(=O)c1ccccc1Nc1nc(Nc2cc(OC)c(OC)c(OC)c2)ncc1Br [Compound 14], the “tumor growth compared with the start of treatment” value (A549 cells [1]) was “little to no growth, or even a decrease in tumor volume”, the “final tumor average volume” value (A549 cells [2]; 20 mg/kg twice daily alone, day 53) was ~150 mm^3 and the “average tumor mass at the end of the study” value (“average tumor mass at the end” for short) (A549 cells [2]; 30 mg/kg twice daily alone, 42 days of treatment) was “smallest tumors”. For the same compound, the “tumor volume at the end of the study” value (A549 cells [2]; 30 mg/kg twice daily alone, day 53) was ~50 mm^3, the “average tumor mass at the end” value (A549 cells [2]; both combinations: Compound 14 20 or 30 mg/kg twice daily with carboplatin 25 mg/kg every three days, 42 days) was “smallest tumors” and the “tumor volume at the end of the study” value (A549 cells [2]; both combinations: Compound 14 20 or 30 mg/kg twice daily with carboplatin 25 mg/kg every three days, day 53) was ~50 mm^3. For the same compound, the “tumor growth compared to the control” value (A549 cells [2]; monotherapy: carboplatin 25 mg/kg every three days, Compound 14 20 mg/kg twice daily) was “markedly reduced growth compared to the control”, the “final tumor size (average)” value (MIA PaCa-2 cells; 20 mg/kg daily alone) was ~1000 mm^3 and the “average tumor mass at the end” value (MIA PaCa-2 cells; both combinations: trametinib 1 mg/kg daily with Compound 14 20 or 30 mg/kg daily) was “substantially less tumor mass compared to control and each mono-therapy”. For the same compound, the “phosphorylated ATG13 in tumors (Western blot)” value ([3]; 20 mg/kg twice daily monotherapy) was “some residual phosphorylated ATG13”, the “phosphorylated ATG13 in tumors (Western blot)” value ([3]; 30 mg/kg twice daily monotherapy) was “almost total elimination of phosphorylated ATG13” and the “ULK1 levels in tumor (Western blot)” value [4] was “reduced ULK1 levels compared to vehicle treated”. The “levels of phosphorylated ATG13 in tumor (Western blot)” value [4] was “reduced levels of phosphorylated ATG13”, the “total levels of ATG13 in tumor (Western blot)” value ([4]; versus vehicle) was “comparable” and the “% growth of tumor relative to the start of treatment” value (NCI-H460 cells) was “clear reduction in tumor growth”. The average tumor volume (NCI-H460 cells; 9 days of treatment) was “substantially reduced growth during the monitoring period compared to the control”, the tumor growth (NCI-H460 cells; after 3 days of treatment) was “tumor growth had virtually stopped” and the “less tumor mass than vehicle treated mice” value (NCI-H460 cells; day 9 post treatment) was ~50%.
